Source: patent US10041104B2, “Microfluidic device” (Astrego Diagnostics AB, priority 2014, dated 2018)
In brackets after ≈: the same amount, converted by molar mass.

How the values were obtained:
[1] = tested on: chloramphenicol-susceptible and chloramphenicol-resistant E. coli strains; test: AST test in microfluidic device, phase contrast images (FIG. 15); assay type: cell-based, Escherichia coli; details: both strains exposed to 6 μg/ml chloramphenicol; images taken 15 min apart
Text: The microfluidic device of the embodiments can be used for various applications. An example of such application is antibiotic susceptibility testing (AST). For example, the microfluidic device 1 shown in FIG. 10 can be used for this purpose. In such a case, the sample strain can be loaded from, for instance, the common second fluid port 33A using the first fluid ports 31A′, 31B′, 31C′ as output ports for excess cells and culture medium and the common third fluid port 51 as output port for culture medium and for sucking cells into the cell channels. In an example, during loading culture medium is flown from the common second fluid port 33C to the common second fluid port 33B to prevent contaminating the common second fluid port 33C. After cell loading culture medium preferably flows from the common second fluid port 33C using the first fluid ports 31A′, 31B′, 31C′ and the common third fluid port 51 as output ports. At this stage growth of the cells in the cell channels can be monitored for some time, 0 min to days, while imaging the cells in the different cell channels. […] Susceptibility is monitored by the phenotypic response to antibiotic in the different cell channels. […] Some phenotypic changes are best studied by addition of test agents, such as 4′,6-diamidino-2-phenylindole (DAPI) and SYTOX® fluorescent stains, that can be monitored in a florescence channel. […]

[2] = tested on: chloramphenicol-susceptible E. coli strain; test: minimum inhibitory concentration (MIC); assay type: cell-based; details: Escherichia coli
[3] = tested on: chloramphenicol-resistant E. coli strain; test: minimum inhibitory concentration (MIC); assay type: cell-based; details: Escherichia coli
[4] = tested on: ciprofloxacin resistant E. coli strain DA20859; test: minimum inhibitory concentration (MIC); assay type: cell-based; details: Escherichia coli
[5] = tested on: ciprofloxacin resistant E. coli strain DA20859; test: AST in microfluidic device, average growth rate response by phase contrast time lapse imaging (FIG. 18); assay type: cell-based, Escherichia coli
Text: The microfluidic device of the embodiments can be used for various applications. An example of such application is antibiotic susceptibility testing (AST). For example, the microfluidic device 1 shown in FIG. 10 can be used for this purpose. In such a case, the sample strain can be loaded from, for instance, the common second fluid port 33A using the first fluid ports 31A′, 31B′, 31C′ as output ports for excess cells and culture medium and the common third fluid port 51 as output port for culture medium and for sucking cells into the cell channels. In an example, during loading culture medium is flown from the common second fluid port 33C to the common second fluid port 33B to prevent contaminating the common second fluid port 33C. After cell loading culture medium preferably flows from the common second fluid port 33C using the first fluid ports 31A′, 31B′, 31C′ and the common third fluid port 51 as output ports. At this stage growth of the cells in the cell channels can be monitored for some time, 0 min to days, while imaging the cells in the different cell channels. The AST test starts by flowing different antibiotics or a same antibiotic but at different concentrations into the different sets 2A, 2B, 2C of cell channels using the first fluid ports 31A, 31B, 31C as input ports, while using the common second fluid ports 33A, 33B, 33C and the common third fluid port 51 as output ports. Susceptibility is monitored by the phenotypic response to antibiotic in the different cell channels. For example, it is possible to determine the average growth rate and the cell to cell distribution of growth rates just by monitoring the length extension in phase contrast using automatics images analysis routines. These measurements can be averaged over cells in many cell channels such that it is possible to determine minute phenotypic changes within a few minutes. Phenotypic changes can also be in morphological changes, such as the compaction of DNA or changes in membrane structure or in integrity. Some phenotypic changes are best studied by addition of test agents, such as 4′,6-diamidino-2-phenylindole (DAPI) and SYTOX® fluorescent stains, that can be monitored in a florescence channel.
The E. coli strain was exposed to (1) no drug marked with “x”, (2) erythromycin at 120 μg/ml marked with diamonds or (3) ciprofloxacin 10 μg/ml marked with circles. The time point 0 min corresponds to the start of the treatment. The curve corresponding to treatment with the drug (erythromycin) for which the strain is susceptible can be distinguished from the no treatment curve in <10 min. The curve corresponding to treatment with the drug for which the strain is susceptible can be distinguished from the curve corresponding to the drug (ciprofloxacin) for which the strain is resistant in <15 min.

[6] = tested on: erythromycin-resistant E. coli strain; test: minimum inhibitory concentration (MIC); assay type: cell-based; details: Escherichia coli
[7] = tested on: erythromycin-resistant and erythromycin-susceptible E. coli strains; test: AST in microfluidic device, average growth rate response (FIG. 17); assay type: cell-based, Escherichia coli; details: 120 μg/ml erythromycin at time 0 min
Text: The microfluidic device of the embodiments can be used for various applications. An example of such application is antibiotic susceptibility testing (AST). For example, the microfluidic device 1 shown in FIG. 10 can be used for this purpose. In such a case, the sample strain can be loaded from, for instance, the common second fluid port 33A using the first fluid ports 31A′, 31B′, 31C′ as output ports for excess cells and culture medium and the common third fluid port 51 as output port for culture medium and for sucking cells into the cell channels. In an example, during loading culture medium is flown from the common second fluid port 33C to the common second fluid port 33B to prevent contaminating the common second fluid port 33C. After cell loading culture medium preferably flows from the common second fluid port 33C using the first fluid ports 31A′, 31B′, 31C′ and the common third fluid port 51 as output ports. At this stage growth of the cells in the cell channels can be monitored for some time, 0 min to days, while imaging the cells in the different cell channels. […] Susceptibility is monitored by the phenotypic response to antibiotic in the different cell channels. […] Some phenotypic changes are best studied by addition of test agents, such as 4′,6-diamidino-2-phenylindole (DAPI) and SYTOX® fluorescent stains, that can be monitored in a florescence channel.

[8] = tested on: erythromycin-susceptible (non-resistant) E. coli strains; test: minimum inhibitory concentration (MIC); assay type: cell-based; details: Escherichia coli; two non-resistant E. coli strains (circles and diamonds in FIG. 17)

MIC [2]	MIC [3]	SMILES	growth of susceptible strain compared with resistant strain [1]	MIC [4]	susceptibility of the strain to the drug [5]	MIC [6]	time in which treatment curve can be distinguished from no treatment curve (average growth rate) ([5]; erythromycin 120 μg/ml)	time in which curve of drug for which strain is susceptible can be distinguished from curve of drug for which strain is resistant ([5]; erythromycin 120 μg/ml versus ciprofloxacin 10 μg/ml)	time in which resistant strain can be distinguished from susceptible strains (average growth rate) [7]	MIC [8]
~4 µg/mL (≈ 12.4 µM)	> 12 µg/mL	O=C(N[C@H](CO)[C@H](O)c1ccc([N+](=O)[O-])cc1)C(Cl)Cl [chloramphenicol]	grown much less than the chloramphenicol-resistant strain							
		O=C(O)c1cn(C2CC2)c2cc(N3CCNCC3)c(F)cc2c1=O [ciprofloxacin]		~30 µg/mL (≈ 90.5 µM)	resistant					
		CC[C@H]1OC(=O)[C@H](C)[C@@H](O[C@H]2C[C@@](C)(OC)[C@@H](O)[C@H](C)O2)[C@H](C)[C@@H](O[C@@H]2O[C@H](C)C[C@H](N(C)C)[C@H]2O)[C@](C)(O)C[C@@H](C)C(=O)[C@H](C)[C@@H](O)[C@]1(C)O [erythromycin]			susceptible	256 µg/mL (≈ 349 µM)	< 10 min	< 15 min	less than 20 min	~12 µg/mL (≈ 16.4 µM)
